≈ marks a conversion by molar mass, not a printed value. Structures can show the parent of a compound that is named as a salt. Where two headings read alike, the source gives them in different places.
Experiments:
[1] = Water solubility (equilibrium solubility at ambient temperature); type: physicochemical
Experimental: The water solubility of Mesylate Salt Form 1 was measured at ambient temperature. Table 6 is a summary of the equilibrium solubility.

[2] = Gravimetric vapor sorption (GVS), hygroscopicity; type: physicochemical
Experimental: Gravimetric vapor sorption (GVS) data are collected using a SGA-100 Water Vapor Sorption Analyzer from VTI Corporation. Sample sizes are typically 10 mg. A moisture adsorption/desorption isotherm is recorded by subjecting samples to a series of relative humidity (RH) steps.

Row | solubility ([1]; in water, crystalline free base, read-out: solubility) | solubility ([1]; water, free base, read-out: intrinsic solubility) | uptake (vapor sorption) ([2]; at 70% relative humidity (RH)) | uptake (vapor sorption) ([2]; at 90% RH) | solubility ([1]; pH 2.52, thermodynamic from solid, water, ambient temperature, equilibrium solubility, read-out: Solubility) | pH ([1]; pH printed beside the equilibrium water solubility) | solubility ([1]; thermodynamic from solid, in water, crystalline Form 1, read-out: solubility) | SMILES
1 | ~10 µg/mL (≈ 19.5 µM) | ~10 µg/mL (≈ 19.5 µM) |  |  |  |  |  | C[C@@H]1CN(C(=O)CN2CC(C)(C)OC[C@H]2C(=O)Nc2cc(Cl)cc3c2[nH]c2cnccc23)C[C@H](C)O1 [free base, (S)—N-(6-chloro-9H-pyrido[3,4-b]indol-8-yl)-4-(2-((2S,6R)-2,6-dimethylmorpholino)-2-oxoethyl)-6,6-dimethylmorpholine-3-carboxamide]
2 |  |  | 1.5% | 3.4% | > 360000 µg/mL | 2.52 | > 360000 µg/mL | C[C@@H]1CN(C(=O)CN2CC(C)(C)OC[C@H]2C(=O)Nc2cc(Cl)cc3c2[nH]c2cnccc23)C[C@H](C)O1 [Mesylate Form 1, (S)—N-(6-chloro-9H-pyrido[3,4-b]indol-8-yl)-4-(2-((2S,6R)-2,6-dimethylmorpholino)-2-oxoethyl)-6,6-dimethylmorpholine-3-carboxamide Mesylate Form 1]
